In brackets after ≈: the same amount, converted by molar mass.
Tests used:
[1] = system: A549 cells; test: MTT assay, inhibition of tumour cell growth; type: cell-based, human; settings: mean ± s, n = 3
Experimental: (§1) The tumour cell suspension in logarithmic growth phase, containing about 5 × 10^3 cells, was taken and seeded onto a 96-well plate and gently shaken to disperse the cells evenly at the bottom of the plate. The cells were incubated in a constant temperature (37 °C) incubator for 24 h. The old medium was discarded, and 100 μL of the prepared working solution of piperidinone monocarbonyl curcumin analogues at different concentrations was added, and the cells were incubated in a constant temperature incubator for 24 h. Blank medium wells, blank cell wells, and 0.9% DMSO (highest content) wells were set up, with 6 multi-well and 3 multi-plates for each concentration. The discarded old medium was absorbed, and 100 μL of 10% 5 mg/mL MTT working solution was added to each well (operated away from light) and placed in a cell incubator for further incubation for 4 h. The old medium was discarded, and 100 μL of DMSO was added to each well and shaken in an air shaker at 100 RPM for 10 min. The absorbance of the OD value was measured at 490 nm by a multifunctional microplate analyzer. According to Formula (1), the inhibition rates of different piperidones monocarbonyl curcumin analograms on 4 tumour cells were calculated, and IC50 was calculated by GraphPad Prism 8.0:Inhibition rate (%) = (OD blank cell group − OD administration group)/OD blank cell group(1)

[2] = system: Hela cells; test: MTT assay, inhibition of tumour cell growth; type: cell-based, human; settings: 24 h, mean ± s, n = 3
Experimental: as §1

[3] = system: HepG2 cells; test: MTT assay, inhibition of tumour cell growth; type: cell-based, human; settings: mean ± s, n = 3
Experimental: as §1

[4] = system: MCF-7 cells; test: MTT assay, inhibition of tumour cell growth; type: cell-based, human; settings: mean ± s, n = 3
Experimental: as §1

[5] = system: L02 cells; test: MTT assay, toxicity to human normal liver cells; type: cell-based; settings: mean ± s, n = 3
Experimental: The cells were passaged to the fourth generation of L02 cells, and the cell suspension containing about 5 × 10^3 cells was added to each well of the 96-well plate and cultured in a cell culture incubator for 24 h. The old medium was discarded, and different concentrations of liquid medicine (6 porous and 3 plates for each concentration) were added and incubated for 24 h. The old medium was discarded, 10% of 5 mg/mL MTT working solution was added in the dark, and the cells were incubated in a cell incubator for 4 h. The old medium was discarded, 100 μL DMSO was added to each well, and 100 RPM was oscillated on an air shaker for 10 min. The OD value was measured at 490 nm with a multifunctional microplate reader. According to the OD value, the inhibition rate of different piperidone monocarbonyl curcumin analogues on L02 cells was calculated according to Formula (1), and IC50 was calculated by Graph Pad Prism 8.0.

[6] = system: A549 cells; test: Flow cytometry apoptosis (Annexin V/PI); type: cell-based, human; settings: 24 h
Experimental: The A549 cells in logarithmic growth phase were inoculated in 6-well plates at 1 × 10^6 cells. After resting in the incubator for 24 h, the cells were treated with different concentrations of drugs. The blank control group was added with the medium with the highest concentration of DMSO. After 24 h of culture, cells were collected, washed with PBS, transferred to a flow tube, and resuspended with 100 μL of 1 × Annexin V conjugate. Add 4 μL YF4/88-Annexin N and 5 μL PI working solution. The cells were incubated in the dark at room temperature for 10 min, transferred to a flow cytometer tube, added with 200 μL of 1 × Annexin V conjugate, and immediately detected by flow cytometry.

[7] = system: MRSA; test: AGAR plate zone of inhibition test (filter paper); type: cell-based, methicillin-resistant Staphylococcus aureus; settings: Staphylococcus aureus, 160 μmol/L, 6 mm filter paper, 16 h, mean ± s, n = 3, read-out: Diameter of Bacteriostatic Zone
Experimental: Based on the results of previous experiments, the promising compounds were selected, and the size of the inhibition zone at 160 μmol/L was determined. The specific operation was as follows: The nutrient agar medium, after high temperature sterilization, was poured into about 20 mL per 9 cm plate in an ultra-clean bench and naturally cooled and solidified. Each plate was evenly coated with 100 μL MRSA bacterial suspension. The filter paper of 6 mm diameter soaked in the drug solution was dried by flame evaporation, and four tablets were placed in parallel into each plate, cultured in a constant temperature incubator at 37 °C for 16 h, and the size of the inhibition zone was measured.

[8] = system: MRSA; test: Broth microdilution inhibition test and MIC; type: cell-based, methicillin-resistant Staphylococcus aureus; settings: Staphylococcus aureus, MRSA
Experimental: Then, the MIC values of 100% compounds at the maximum inhibitory concentration were obtained by the broth microdilution method. The specific experiments are as follows: First, in the 96-well plate, add 100 μL of compound working solution from column 2 to column 8, with concentrations decreasing from high to low, repeating each concentration 6 times. Add 100 μL of NB nutrient broth containing 1% DMSO to column 9, and 100 μL of blank NB nutrient broth to columns 10 and 11. Then, add 10 μL of bacterial suspension to each well from columns 2 to 10. Place the 96-well plate in a 37 °C incubator for 16 h at 100 rpm and measure the absorbance at 600 nm by microplate reader. Columns 2 to 9 represent the drug treatment group, column 10 is the negative control group, and column 11 is the blank control group. The minimum concentration that inhibits bacterial growth is the MIC value of the compound: Bacterial inhibition rate (%) = (OD administration − OD control)/(ODcontrol − OD blank) (3)

SMILES: O=C1C(=Cc2ccc(Cl)c(Cl)c2)CNCC1=Cc1ccc(Cl)c(Cl)c1 [3,4-2Cl, 3,5-Bis(3,4-dichlorobenzylidene)-4-piperidone]
- IC50 ([1]; Homo sapiens, A549, 24 h): 11.9 ± 4.64 µM
- IC50 ([2]; Homo sapiens, HeLa): > 40 µM
- IC50 ([3]; Homo sapiens, HepG2, 24 h): > 40 µM
- IC50 ([4]; Homo sapiens, MCF7, 24 h): > 40 µM

SMILES: O=C1C(=Cc2cccc(Br)c2)CNCC1=Cc1cccc(Br)c1 [3-Br]
- IC50 ([1]; 24 h): > 40 µM
- IC50 [2]: > 40 µM
- IC50 ([3]; 24 h): 18.3 ± 3.44 µM
- IC50 ([4]; 24 h): 22.5 ± 3.55 µM

SMILES: O=C1C(=Cc2ccc(Br)cc2F)CNCC1=Cc1ccc(Br)cc1F [4Br-2F]
- IC50 ([1]; 24 h): 20.2 ± 4.15 µM
- IC50 [2]: 18.7 ± 3.66 µM
- IC50 ([3]; 24 h): 16.4 ± 1.97 µM
- IC50 ([4]; 24 h): 28.5 ± 2.91 µM

SMILES: O=C1C(=Cc2cc(Br)ccc2Cl)CNCC1=Cc1cc(Br)ccc1Cl [5Br-2Cl]
- IC50 ([1]; 24 h): 14.2 ± 3.85 µM
- IC50 [2]: > 40 µM
- IC50 ([3]; 24 h): 29.3 ± 2.94 µM
- IC50 ([4]; 24 h): > 40 µM

SMILES: N.N.[Cl][Pt][Cl] [Cisplatin solution, reference compound]
- IC50 ([1]; 24 h): 41.2 ± 3.49 µM
- IC50 [2]: 59.4 ± 1.7 µM
- IC50 ([3]; 24 h): 27.7 ± 3.26 µM
- IC50 ([4]; 24 h): 55.2 ± 4.09 µM
- IC50 ([5]; 24 h): 48.4 ± 3.83 µM
- Proportion of normal cells (flow cytometry) ([6]; 30 μmol/L): 86.27%

SMILES: COc1cc(/C=C/C(=O)CC(=O)/C=C/c2ccc(O)c(OC)c2)ccc1O [Curcumin]
- IC50 ([1]; Homo sapiens, A549, 24 h): 33.5 ± 3.83 µM
- IC50 ([2]; Homo sapiens, HeLa): 29.2 ± 2.57 µM
- IC50 ([3]; Homo sapiens, HepG2, 24 h): 17.6 ± 3.43 µM
- IC50 ([4]; Homo sapiens, MCF7, 24 h): 39.2 ± 2.81 µM
- IC50 ([5]; Homo sapiens, L02, 24 h): 30.4 ± 1.04 µM
- Proportion of normal cells (flow cytometry) ([6]; 20 μmol/L): 84.27%

SMILES: CC1(C)S[C@@H]2[C@H](NC(=O)Cc3ccccc3)C(=O)N2[C@H]1C(=O)O [Penicillin]
- zone of inhibition at 160 µM [7]: 8.67 ± 0.58 mm

SMILES: NC[C@H]1O[C@H](O[C@H]2[C@H](O)[C@@H](O[C@H]3O[C@H](CO)[C@@H](O)[C@H](N)[C@H]3O)[C@H](N)C[C@@H]2N)[C@H](N)C[C@@H]1O [Tobramycin, reference compound]
- inhibition at 70 µM ([8]; 70 μmol/L, read-out: Inhibition rate of MRSA): < 100%
- inhibition at 80 µM ([8]; 80 μmol/L, read-out: Inhibition rate of MRSA): 100%
- inhibition at 160 µM ([8]; 160 μmol/L): 100%
- MIC ([8]; broth microdilution, read-out: MIC): 80 µM (≈ 37.4 µg/mL)
- zone of inhibition at 160 µM [7]: 10.7 ± 0.58 mm
